# Tests used:
# P. aeruginosa ATCC 27853 = assay: Dehydrogenase activity (DEHA) MTT test after BMD; assay type: cell-based, Pseudomonas aeruginosa; details: for DEHA (dehydrogenase activity): 24 h exposure, % against untreated control, ± SD, n = 3
# Method: (§1) The cell dehydrogenase (DEHA, redox, metabolic) activity of all samples was measured at the end of the BMD assay, based on reducing the MTT dye to formazan by the membrane located bacterial enzyme NADH: ubiquinone reductase (H^+-translocation). The protocol of Wang et al. was applied after minor modifications. Briefly, each sample was incubated for 120 min at 37 °C with MTT at a final concentration of 0.5 mg/mL in the culture medium. The resulting non-soluble violet formazan crystals were dissolved with an equal volume of 2-propanol supplemented with 5% formic acid. The absorbance was measured at 550 nm against a blank solution containing the respective volumes of MHB and MTT.
# (§2) The cell viability is presented as a percentage of the untreated control. At least four wells were seeded for every concentration. Three independent assays were performed (n = 3). […] The respiratory activity of the bacterial cultures was calculated as a percentage against the untreated control.
# S. pyogenes SAIMC 10535 = assay: Dehydrogenase activity (DEHA) MTT test after BMD; assay type: cell-based, Streptococcus pyogenes; details: 24 h exposure; % against untreated control; ± SD; n = 3
# Method: as §1, §2
# E. faecalis ATCC 29212 = assay: Dehydrogenase activity (DEHA) MTT test after BMD; assay type: cell-based, Enterococcus faecalis; details: 24 h exposure; % against untreated control; ± SD; n = 3
# Method: as §1, §2
# [1] = system: CCL-1 (transformed mouse fibroblasts, NCTC clone 929); assay: MTT dye-reduction cytotoxicity assay (ISO 10993-5); assay type: cell-based; details: for MTC (maximum tolerated concentration): at least 70% of cells viable
# From the text: (§3) The cell lines utilized in this study included the human tumor lines A-375 (malignant melanoma) and A-431 (non-melanoma epidermoid squamous skin carcinoma) as well as the models for non-tumorigenic cells—HaCaT (immortalized human keratinocytes) and CCL-1^TM (transformed mouse fibroblasts, NCTC clone 929). The first three cell lines were obtained from CLS Cell Lines Service (GmbH, Eppelheim, Germany). CCL-1^TM was purchased from the American Type Culture Collection (ATCC, Manassas, VA, USA). Cells were maintained in a controlled environment—sterile cell culture flasks in a CO2 incubator Panasonic MCO-18AC (Panasonic Healthcare co., ltd, Oizumi-Machi, Japan) at 37 °C and a humidified atmosphere containing 5% CO2. CCL-1 was cultured in MEM with 10% heat-inactivated horse serum and 2 mM L-glutamine, and the cell culture medium for the rest of the cell lines was DMEM-HG with 4.5 g/L glucose with the addition of 10% heat-inactivated fetal bovine serum and 4 mM L-glutamine. Pen/strep (concentration of penicillin G sodium 10^5 Units/L and of streptomycin sulfate 100 mg/L) was added to both culture media. The cell lines were maintained as an adherent monolayer in a log phase. The cells were sub-cultivated about 1–3 times per week after the monolayer reached 80–90% confluence. The medium was removed from the flask, and the cell monolayer was washed with 3–5 mL PBS. The cells were incubated with 0.05% EDTA in PBS for 8–10 min, followed by the next step where all cell lines were subjected to enzyme cell detachment. HaCaT and CCL-1 monolayers were detached with 1 mL solution of trypsin/EDTA (0.1%/0.05% for HaCaT and 0.25% (w/v)/0.53 mM for CCL-1) and incubated for 2–5 min at 37 °C (for HaCaT) or at room temperature (for CCL-1 cells), whereas Accutase® was used for A-375 and A-431 lines. The incubation lasted until the separation and dispersion of the cells in the monolayer were observed using light microscopy. In the end, all cell lines were resuspended in 10 mL medium and centrifuged for 3 min at 300× g. The cell pellet was resuspended in fresh medium and sub-cultivated at a seeding density of 1.0 × 10^4 cells/cm^2.
# (§4) The MTT test was performed in order to determine the median inhibitory (IC50) and MTC concentrations of the solvents and PAC according to Annex C, ISO 10993-5 [2, 21]. Briefly, 100 µL of the cell suspension (1 × 10^5 cells/mL) were seeded per well in 96-well plates with a flat bottom. The cells were incubated for 24 h, allowing them to enter the log phase of their growth. On the 24th hour, the cells were treated with the solvents or CystiCran® solutions in concentrations ranging between 0.004% and 2% volume fraction (v/v) and incubated further for 72 h. The incubation periods are following the recommendations of the FDA guide for the use of ISO 10993-1 [1]. At the end of the incubation period, 10 µL of an MTT solution (5 mg/mL) were added to each well, and the plates were kept at 37 °C for 2 hours. Thereafter, the medium was aspirated, and the formed formazan crystals were dissolved in 100 μL/well of 2-propanol supplemented with 5% formic acid. The same solvent was used as a blank. Untreated cells were considered as a negative control. […] The absorption was measured at 540 nm (reference filter at 690 nm) on a microplate reader ELx800 (BioTek Instruments, Inc., Winooski, VT, Winooski, VT, USA).
# The IC50 values from the MTT assay were evaluated with a non-linear regression analysis (Curve fit, GraphPad Prizm 6.01 software, GraphPad Software Inc., San Diego, CA, USA) using sigmoidal concentration–response curves. The cell viability is presented as a percentage of the untreated control. At least four wells were seeded for every concentration. Three independent assays were performed (n = 3).
# [2] = system: A-431 (non-melanoma epidermoid squamous skin carcinoma); assay: MTT dye-reduction cytotoxicity assay (ISO 10993-5); assay type: cell-based, human; details: solvent alone, n = 3; for MTC (maximum tolerated concentration): 72 h, at least 70% of cells viable
# From the text: as §3
# as §4, with “blank.” for “blank. Untreated cells were considered as a negative control.”
# The IC50 values from the MTT assay were evaluated with a non-linear regression analysis (Curve fit, GraphPad Prizm 6.01 software, GraphPad Software Inc., San Diego, CA, USA) using sigmoidal concentration–response curves. […]
# [3] = system: Staphylococcus epidermidis, Salmonella paratyphi A, Vibrio cholerae, Shigella flexneri and Pseudomonas oleovorans; details: cited from earlier work
# S. epidermidis = system: S. epidermidis; set-up: method as in doi:10.5580/b43; details: in the presence of 6% solvent; cited from earlier work
# [4] = system: S. Aureus MRSA NBIMCC 8327; assay: Dehydrogenase activity (DEHA) MTT test after BMD; assay type: cell-based, Staphylococcus aureus; details: 24 h exposure; % against untreated control; ± SD; n = 3
# Method: as §1
# The IC50 values from the MTT assay were evaluated with a non-linear regression analysis (Curve fit, GraphPad Prizm 6.01 software, GraphPad Software Inc., San Diego, CA, USA) using sigmoidal concentration–response curves. The cell viability is presented as a percentage of the untreated control. […] The maximum tolerated concentration (MTC) for the cell lines was determined from three independent assays according to ISO 10993-5 as the maximum concentration at which at least 70% of the cells were viable (nonlin fit, range, GraphPad Prizm 6.01 software) GraphPad Software Inc., San Diego, CA, USA). […] The respiratory activity of the bacterial cultures was calculated as a percentage against the untreated control.
Compound,DEHA (dehydrogenase activity) (P. aeruginosa ATCC 27853) [%],suppression of the respiratory activity (P. aeruginosa ATCC 27853; P. aeruginosa) [%],DEHA (dehydrogenase activity) (S. pyogenes SAIMC 10535) [%],DEHA (dehydrogenase activity) (E. faecalis ATCC 29212) [%],"IC50 value ([1]; 72 h, equals 1.16% v/v) [mg/mL]","MTC (maximum tolerated concentration) ([1]; solvent alone, 72 h, n = 3)","IC50 (CI 95%) ([1]; solvent alone, 72 h incubation, n = 3)",MTC (maximum tolerated concentration) [2],growth inhibition ([3]; at a concentration of 1% v/v) [%],survival (S. epidermidis) [%],IC50 (CI 95%) ([2]; 72 h incubation),MTC [3] [% volume fraction],DEHA (dehydrogenase activity) [4] [%]
polyethylene glycol of average molecular weight 400 [PEG-400],15.31 ± 0.04,~85,23.66 ± 0.02,65.33 ± 0.06,13,0.21 % (v/v),1.16 % (v/v),0.89 % (v/v),–,–,–,–,–
"CCO [EtOH, ethanol]",–,–,–,–,–,1.15 % (v/v),–,> 2 % (v/v),19,26,> 2 % (v/v),–,–
"C[S+](C)[O-] [DMSO, dimethyl sulfoxide]",9.78 ± 0.01,–,27.27 ± 0.02,29.86 ± 0.08,–,–,–,–,–,15,–,3,13.01 ± 0.05
